Reference: patent US20250228800A1, “Treatment of nasal cavity inflammation and mucus hypersecretion” (priority 2024, published 2025)
Like-named read-outs stand apart in the source and are kept apart here. Blank lines part the entries; values can stand above or below the molecule they belong to.

Experiments:
[1] = test system: tongue; assay: Oral cavity screen, 15 mg of white crystals on dorsal surface of the tongue; format: in vivo, human
Description: The first screening tests conducted in this discovery to assess candidates that produce refreshing cooling in the oral cavity. Test agents, prepared as 15 mg of white crystals, were placed on the dorsal surface of the tongue. The chemical structures and identifying characteristics are in Table 1.

[2] = test system: skin; settings: for treatment of skin dysesthesia (insect bites, skin allergies, thermal injury): topical gel on skin
[3] = molecular target: T1, TRPM8 (Homo sapiens, UniProt Q7Z2W7); settings: Ref#3; cited from earlier work
T1 sequence (Q7Z2W7 whole entry, species assumed): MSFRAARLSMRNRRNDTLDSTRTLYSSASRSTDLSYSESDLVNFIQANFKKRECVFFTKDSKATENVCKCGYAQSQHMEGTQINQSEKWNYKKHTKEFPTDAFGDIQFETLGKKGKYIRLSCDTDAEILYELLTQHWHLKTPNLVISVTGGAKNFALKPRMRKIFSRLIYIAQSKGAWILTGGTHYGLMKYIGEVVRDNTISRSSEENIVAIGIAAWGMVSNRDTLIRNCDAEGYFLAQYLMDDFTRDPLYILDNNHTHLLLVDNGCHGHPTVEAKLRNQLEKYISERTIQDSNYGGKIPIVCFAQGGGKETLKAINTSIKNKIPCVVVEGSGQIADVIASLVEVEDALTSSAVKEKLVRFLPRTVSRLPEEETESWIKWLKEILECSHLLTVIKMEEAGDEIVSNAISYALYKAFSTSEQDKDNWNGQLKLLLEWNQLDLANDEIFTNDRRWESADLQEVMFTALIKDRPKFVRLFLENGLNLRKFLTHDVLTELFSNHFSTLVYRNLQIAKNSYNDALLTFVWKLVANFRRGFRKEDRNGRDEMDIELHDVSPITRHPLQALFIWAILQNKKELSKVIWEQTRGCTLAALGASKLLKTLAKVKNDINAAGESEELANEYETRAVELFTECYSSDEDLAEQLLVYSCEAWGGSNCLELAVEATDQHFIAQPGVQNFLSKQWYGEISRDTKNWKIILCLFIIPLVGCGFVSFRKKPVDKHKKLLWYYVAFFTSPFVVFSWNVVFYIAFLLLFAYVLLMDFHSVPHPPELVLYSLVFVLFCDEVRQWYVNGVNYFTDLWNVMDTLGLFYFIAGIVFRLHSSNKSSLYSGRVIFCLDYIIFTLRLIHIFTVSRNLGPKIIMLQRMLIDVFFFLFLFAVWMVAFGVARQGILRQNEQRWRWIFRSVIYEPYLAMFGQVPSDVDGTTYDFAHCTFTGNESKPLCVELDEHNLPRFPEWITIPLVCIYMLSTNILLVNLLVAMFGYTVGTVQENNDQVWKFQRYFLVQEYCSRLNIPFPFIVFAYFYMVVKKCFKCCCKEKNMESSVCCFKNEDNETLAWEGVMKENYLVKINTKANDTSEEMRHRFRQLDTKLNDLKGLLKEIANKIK

[4] = test system: philtrum skin; assay: Philtrum skin assay of cooling; format: in vivo, human; settings: for Duration (min) of cooling / Comments (sensation): 8% wt/vol gel on philtrum skin
Text: Wei (2012) proposed the use of the skin on the philtrum as a test site for cooling activity of chemicals. The philtrum is the midline groove above the upper lip border and vermilion and is the drug application site. The gel is placed on the philtrum with a cotton-tipped applicator up to the nasolabial folds and sometimes, but not deliberately, on the lower nostrils (subnasale). Cold receptors densely innervate the philtrum skin, second only to the surfaces of the eyeball, nasal surfaces, and anogenitalia. The lips also have a high density of “cold spots.” This is called the philtrum assay. The test substance is dissolved in a carrier, such as solvent, gel, or ointment and applied to the philtrum, a surface area of ˜10 to 12 cm2. The subject records sensations on the philtrum and environs on a scale of 0 to 3, as: 0=no changes in sensation, 1=a slight feeling of coolness, cold or tingling, 2=a clearcut feeling of coolness or cold and 3=a robust feeling of coolness and cold. The intervals for measurements are usually 0, 1, 3, 5 min after application, and at then 5 min or longer intervals thereafter until two successive zeros are obtained. Test substances are applied to the philtrum using a cotton-tipped applicator (Puritan Cotton-tipped applicators, or Q-Tips). The applicator tip is dipped into a reservoir bottle containing the liquid or semi-liquid (gel) test substance. The composition adhering to the cotton (about 0.2 mL) is put on the skin. A subject can practice the method in front of a mirror with a high-intensity light source.

[5] = test system: nasal cavity; assay: Study 1: NasoNeb nebulizer delivery to nasal cavity of subjects with rhinitis; format: in vivo, human
Description: Study 1. In this first study, a specialized nebulizer with an electronically controlled compressor was used to deliver FEMA 4557 to the nasal cavity of subjects with rhinitis. A typical dosage regimen was a 1.0 to 1.5% wt/vol solution (10 to 15 mg/mL) of FEMA 4557 over a 3 to 5 sec delivery period. […] No attempt was made to differentiate between delivered versus retained dose. The severity of rhinitis was quantified by gravimetric measurement of secretions and exudates from the nasal cavity (FIG. 15). Subjects were instructed to blow into a pre-weighed paper tissue and record the weight of the tissue after blowing. The tissue was inspected and marked as clear, with streaks of exudates, or dense gel. The nasal blowouts fell into three distinct categories of weights that were easy to recognize. […] The weight of the blowouts provides an objective index of nasal cavity inflammation. Nasal secretions were inhibited by topical administration of FEMA 4557, dissolved at 15 mg/ml in an ethanol, polysorbate 80, and saline mixture (FIG. 16). A Nasoneb® apparatus delivered FEMA 4557 into the nasal cavity (FIG. 13). The test substance was sprayed into the nasal cavity for 5 sec at t=0, 2, and 5 hr. The data points were fitted by linear regression (GraphPad Prism), and the 10-hr secretion was measured as ([…]). The results were vehicle 3.16±0.10 g and FEMA 4557 1.86±0.07 g, with n=6 and 5 observations per group, respectively. […] Inhibition of nasal secretions by topical administration of FEMA 4557, 15 mg/ml, delivered into the nasal cavity, is further illustrated by plotting the individual blowout units, in g per blowout FIG. 17. The test substances were sprayed into the nasal cavity for 5 sec at t=0, 2, and 5 hr. […] Thus, the anti-inflammatory effect of FEMA 4557 is further confirmed.

[6] = molecular target: T2, TRPA1 (Homo sapiens, UniProt O75762); assay: Bioassay in cells transfected with TRPA1, Prof. Lee laboratory, Duke University; format: cell-based
T2 construct: expressed in transfected cells
T2 sequence (O75762 whole entry, species assumed): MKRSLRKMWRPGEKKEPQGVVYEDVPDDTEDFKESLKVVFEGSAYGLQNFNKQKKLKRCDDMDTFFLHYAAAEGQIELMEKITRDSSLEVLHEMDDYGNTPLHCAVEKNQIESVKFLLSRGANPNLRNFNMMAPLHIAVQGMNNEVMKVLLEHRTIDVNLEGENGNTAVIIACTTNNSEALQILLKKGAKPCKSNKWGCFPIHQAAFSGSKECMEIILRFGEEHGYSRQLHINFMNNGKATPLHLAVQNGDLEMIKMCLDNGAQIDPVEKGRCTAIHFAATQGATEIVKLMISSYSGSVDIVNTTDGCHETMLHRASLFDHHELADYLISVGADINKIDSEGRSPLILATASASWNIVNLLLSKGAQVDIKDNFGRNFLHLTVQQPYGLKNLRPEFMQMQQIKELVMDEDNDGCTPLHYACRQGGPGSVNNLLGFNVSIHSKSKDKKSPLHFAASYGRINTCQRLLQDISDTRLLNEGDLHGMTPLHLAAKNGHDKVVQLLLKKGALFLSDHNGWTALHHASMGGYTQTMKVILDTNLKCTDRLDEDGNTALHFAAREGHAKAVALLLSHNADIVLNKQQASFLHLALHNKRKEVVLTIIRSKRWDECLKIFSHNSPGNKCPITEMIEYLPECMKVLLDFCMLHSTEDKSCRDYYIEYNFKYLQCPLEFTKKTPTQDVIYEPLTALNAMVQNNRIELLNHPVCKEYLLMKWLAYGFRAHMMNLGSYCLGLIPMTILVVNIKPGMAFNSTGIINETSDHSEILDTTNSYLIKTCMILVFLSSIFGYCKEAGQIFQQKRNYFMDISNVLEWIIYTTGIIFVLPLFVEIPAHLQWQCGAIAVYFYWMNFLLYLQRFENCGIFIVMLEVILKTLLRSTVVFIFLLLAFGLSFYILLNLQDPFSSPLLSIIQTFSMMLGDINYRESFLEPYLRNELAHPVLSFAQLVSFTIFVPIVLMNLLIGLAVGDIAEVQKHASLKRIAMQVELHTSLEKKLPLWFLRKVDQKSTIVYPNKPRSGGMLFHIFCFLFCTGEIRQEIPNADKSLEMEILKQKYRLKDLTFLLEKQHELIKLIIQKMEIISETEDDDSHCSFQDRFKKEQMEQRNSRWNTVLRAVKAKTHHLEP

[7] = molecular target: T1, TRPM8; assay: Bioassay of FEMA 4557 (BUDA) on TRPM8, Prof. Lee laboratory, Duke University; format: cell-based
[8] = molecular target: T1, TRPM8; settings: Ref#6; cited from earlier work
[9] = molecular target: T1, TRPM8; settings: Ref#2; cited from earlier work
[10] = molecular target: mouse cold-menthol receptor TRPM8 (Mus musculus, UniProt Q8R4D5); settings: Ref#1; cited from earlier work
Chain of mouse cold-menthol receptor TRPM8 (Q8R4D5 whole entry): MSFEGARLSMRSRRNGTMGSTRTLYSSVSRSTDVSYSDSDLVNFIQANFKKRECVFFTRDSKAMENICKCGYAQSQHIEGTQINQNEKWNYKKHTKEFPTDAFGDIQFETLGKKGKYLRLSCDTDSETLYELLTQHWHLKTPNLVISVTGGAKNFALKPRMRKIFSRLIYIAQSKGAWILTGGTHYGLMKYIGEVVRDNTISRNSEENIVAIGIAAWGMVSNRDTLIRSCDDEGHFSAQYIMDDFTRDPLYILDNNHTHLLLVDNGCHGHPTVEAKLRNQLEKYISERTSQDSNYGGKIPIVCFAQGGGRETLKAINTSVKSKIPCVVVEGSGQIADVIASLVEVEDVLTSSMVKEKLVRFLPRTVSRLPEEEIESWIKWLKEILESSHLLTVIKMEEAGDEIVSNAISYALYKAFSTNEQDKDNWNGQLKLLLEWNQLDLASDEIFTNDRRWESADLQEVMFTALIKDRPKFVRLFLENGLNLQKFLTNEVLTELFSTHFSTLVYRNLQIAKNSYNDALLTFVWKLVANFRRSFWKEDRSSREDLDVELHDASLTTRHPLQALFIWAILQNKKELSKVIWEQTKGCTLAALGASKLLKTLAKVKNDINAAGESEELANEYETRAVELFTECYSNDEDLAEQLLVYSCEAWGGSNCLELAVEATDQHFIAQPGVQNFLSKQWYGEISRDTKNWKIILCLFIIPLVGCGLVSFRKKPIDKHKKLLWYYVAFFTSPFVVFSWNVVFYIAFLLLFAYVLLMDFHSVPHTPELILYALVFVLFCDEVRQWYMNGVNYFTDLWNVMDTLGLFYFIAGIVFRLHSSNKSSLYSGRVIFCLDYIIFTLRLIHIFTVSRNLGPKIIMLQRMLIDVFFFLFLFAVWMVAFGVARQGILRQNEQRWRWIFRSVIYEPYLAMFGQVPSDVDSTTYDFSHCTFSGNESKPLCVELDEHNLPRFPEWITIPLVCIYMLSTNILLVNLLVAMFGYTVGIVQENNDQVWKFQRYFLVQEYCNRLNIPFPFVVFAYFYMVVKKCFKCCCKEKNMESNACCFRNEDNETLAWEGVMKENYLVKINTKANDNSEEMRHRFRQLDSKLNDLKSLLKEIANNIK

activity on TRPA1 [6]: not active
EC50 relative to that of l-menthol [7]: about 1/30
Compound: CCNC(=O)C(CC)(C(C)C)C(C)C [FEMA 4557, N-ethyl-2,2-diisopropyl butanamide]
Effects of 15 mg on tongue (duration) [1]: > 35 min
tissue irritation or inflammation on skin ([2]; human, in vivo): no tissue irritation or inflammation appeared on the skin
duration of stopping irritation of an insect sting ([2]; topical gel 8 to 16% wt/vol): ≥ 3 h
onset of stopping irritation of an insect sting ([2]; topical gel 8 to 16% wt/vol): less than 3 minutes
topical concentration with anti-inflammatory activity on skin ([2]; total dose of several mg): ≥ 5 % wt/vol
EC50 [3]: 1.6 µM
average time of cooling ([4]; 2% concentration): 50 min
average time of cooling ([4]; 4% concentration): 95 min
average time of cooling ([4]; 8% concentration): ≥ 175 min
duration of cooling ([4]; 8% gel, FIG. 4): ~3 h
Duration (min) of cooling [4]: 180+ min
irritation of the skin ([4]; concentrations of up to 12% weight/volume on philtrum skin): no irritation of the skin was observed with FEMA
10-hr nasal secretion (avg.±s.e.m) ([5]; 15 mg/mL, 5 sec at t=0, 2 and 5 hr, NasoNeb, n=5, vehicle 3.16±0.10 g): 1.86±0.07 g
individual nasal blowouts (average±s.e.m.) ([5]; 15 mg/mL, 5 sec at t=0, 2 and 5 hr, NasoNeb, n=56, vehicle 0.38±0.03 g): 0.21 ± 0.03 g
concentration that stops stuffiness of rhinitis and inhibits phlegm secretion ([5]; applied to inflamed nasal membranes): ≤ 1.5 % wt/vol
onset of beneficial effects after delivery ([5]; topical nasal delivery): ≤ 15 min

Compound: CCNC(=O)[C@@H]1C[C@H](C)CC[C@H]1C(C)C [WS-3]
Effects of 15 mg on tongue (duration) [1]: ~8 min
Effects of 15 mg on tongue (sensation) [1]: pleasant cooling in oral cavity
EC50 [3]: 5.9 µM
EC50 [8]: 210 µM

Compound: CCCCCCCP(=O)(C(C)C)C(C)C [Cryosim-1, 1-diisopropyl-phosphorylheptane]
Effects of 15 mg on tongue (sensation) [1]: stinging, painful cold

Compound: COc1ccc(NC(=O)[C@@H]2C[C@H](C)CC[C@H]2C(C)C)cc1 [WS-12]
Effects of 15 mg on tongue (duration) [1]: ~20 min
Effects of 15 mg on tongue (sensation) [1]: pleasant cooling in oral cavity
treatment of skin dysesthesia (insect bites, skin allergies, thermal injury) [2]: ineffective
EC50 [3]: 22.1 µM
Comments (sensation) [4]: pleasant cool sensations on skin
Duration (min) of cooling [4]: 38 ± 4 min
EC50 [9]: 0.2 µM

Compound: CNC(=O)C(C)(C(C)C)C(C)C [WS-23]
Effects of 15 mg on tongue (duration) [1]: too short-lived
Effects of 15 mg on tongue (sensation) [1]: painful cold in throat
Effects of 15 mg on tongue (duration) ([1]; listed as 3804): ~18 min
treatment of skin dysesthesia (insect bites, skin allergies, thermal injury) [2]: ineffective
EC50 [3]: 2.2 µM
Comments (sensation) [4]: short duration of action, no overt cold, but more
Duration (min) of cooling [4]: 25 ± 3 min
EC50 [8]: 1500 µM

Compound: CC1CCC(C(C)C)C(C(=O)OCC(O)CO)C1 (centres unmarked) [WS-30]
EC50 [9]: 5.6 µM

Compound: CC(C)OC(=O)CNC(=O)[C@@H]1C[C@H](C)CC[C@H]1C(C)C [Ax-8, p-Menthane-Gly- OiPr]
Effects of 15 mg on tongue (duration) [1]: ~27 min
Effects of 15 mg on tongue (sensation) [1]: pleasant cooling in oral cavity

Compound: C=CCN=C=S [AITC, allyl isothiocyanate]
activity on TRPA1 [6]: active

Compound: CCOC(=O)CNC(=O)[C@@H]1C[C@H](C)CC[C@H]1C(C)C [WS-5]
Effects of 15 mg on tongue (duration) [1]: ~12 min
Effects of 15 mg on tongue (sensation) [1]: pleasant cooling in oral cavity
treatment of skin dysesthesia (insect bites, skin allergies, thermal injury) [2]: ineffective
EC50 [3]: 0.5 µM
Comments (sensation) [4]: pleasant cool sensations of skin
Duration (min) of cooling [4]: 51 ± 4 min
EC50 [8]: 26 µM

Compound: O=C1NC(c2cccc([N+](=O)[O-])c2)=CCN1c1ccccc1O [icilin]
EC50 [8]: 7 µM

Compound: CCOC(=O)[C@@H](C)NC(=O)[C@@H]1C[C@H](C)CC[C@H]1C(C)C [CPS-369]
EC50 [8]: 65 µM
EC50 [9]: 3.6 µM

Compound: CC(C)[C@@H]1CC[C@@H](C)C[C@H]1OCC(O)CO (some centres unmarked) [Cool 10, menthoxypropanediol]
EC50 [10]: 6 µM
